Test system: cytokines and interferon-inducible genes
Assay: mRNA expression of cytokines and interferon-inducible genes in whole blood of healthy woodchucks (real time PCR)
Assay type: in vivo
Experimental: Compound A was administered orally to adult, WHV-negative woodchucks at two different doses. Three male woodchucks received Compound A at 0.05 mg/kg and three other male woodchucks at 0.5 mg/kg. Whole blood samples (4 mls) were collected from each woodchuck prior to dosing at T0, and then at 4, 8, 12, and 24 hours post-dose using EDTA-containing collection tubes.
The induction of an immune response in woodchucks following administration of Compound A was determined by measuring the mRNA expression of cytokines and interferon-inducible genes in whole blood samples collected at different time points. Total RNA was isolated using the QIAamp RNA Blood Mini Kit (Qiagen) according to the manufacturer's specifications. RNA was eluted into 40 μl nuclease-free water and stored at −70° C. The concentration of RNA was determined spectrophotometrically at OD 260 nm. Two μg of RNA were treated with DNase I (Invitrogen) and reverse transcribed to cDNA with MultiScribe Reverse Transcriptase (Applied Biosystems) using random hexamers. Triplicates of 2 μl cDNA were amplified by real time PCR on an ABI PRISM 7000 Sequence Detection instrument (Applied Biosystems) using SYBR GREEN Master Mix (Applied Biosystems) and woodchuck-specific primers. Amplified target genes included IFN-α, IFN-γ, TNF-α, IL-2, IL-6, IL-10 IL-12, 2′5′-OAS, IDO, and MxA. Woodchuck β-actin mRNA expression was used to normalize target gene expression. Transcription levels of woodchuck cytokines and interferon-inducible genes were represented by the formula 2ΔCt, where ΔCt indicates the difference in the threshold cycle between β-actin and target gene expression. Results were further represented as a fold-change from the transcription level at T0.

## CCCCOc1nc(N)c2nc(O)n(Cc3cccc(CN4CCCC4)c3)c2n1 [Compound A, 6-amino-2-butoxy-9-(3-(pyrrolidin-1-ylmethyl)benzyl)-9H-purin-8-ol]
Oral 0.05 mg/kg, 4 hrs
  2′5′-OAS mRNA expression in peripheral blood, Mean: 13.89
  2′5′-OAS mRNA expression, Fold-change from T0: 3.8 fold
  IDO mRNA expression in peripheral blood, Mean: 1.30
  IDO mRNA expression, Fold-change from T0: 1.1 fold
  IFN-a mRNA expression in peripheral blood, Mean: 7.21
  IFN-a mRNA expression, Fold-change from T0: 3.1 fold
  IFN-γ mRNA expression in peripheral blood, Mean: 2.03
  IFN-γ mRNA expression, Fold-change from T0: 1.6 fold
  IL-2 mRNA expression in peripheral blood, Mean: 2.11
  IL-2 mRNA expression, Fold-change from T0: 1.9 fold
  IL-6 mRNA expression in peripheral blood, Mean: 9.75
  IL-6 mRNA expression, Fold-change from T0: 2.3 fold
  IL-10 mRNA expression in peripheral blood, Mean: 4.14
  IL-10 mRNA expression, Fold-change from T0: 1.7 fold
  IL-12 mRNA expression in peripheral blood, Mean: 7.27
  IL-12 mRNA expression, Fold-change from T0: 4.5 fold
  MxA mRNA expression in peripheral blood, Mean: 2.26
  MxA mRNA expression, Fold-change from T0: 1.4 fold
  TNF-a mRNA expression in peripheral blood, Mean: 23.83
  TNF-a mRNA expression, Fold-change from T0: 3.5 fold
Oral 0.05 mg/kg, 8 hrs
  2′5′-OAS mRNA expression in peripheral blood, Mean: 16.96
  2′5′-OAS mRNA expression, Fold-change from T0: 4.8 fold
  IDO mRNA expression in peripheral blood, Mean: 2.05
  IDO mRNA expression, Fold-change from T0: 2.2 fold
  IFN-a mRNA expression in peripheral blood, Mean: 12.99
  IFN-a mRNA expression, Fold-change from T0: 4.2 fold
  IFN-γ mRNA expression in peripheral blood, Mean: 4.34
  IFN-γ mRNA expression, Fold-change from T0: 3.4 fold
  IL-2 mRNA expression in peripheral blood, Mean: 1.74
  IL-2 mRNA expression, Fold-change from T0: 1.5 fold
  IL-6 mRNA expression in peripheral blood, Mean: 10.57
  IL-6 mRNA expression, Fold-change from T0: 2.6 fold
  IL-10 mRNA expression in peripheral blood, Mean: 8.48
  IL-10 mRNA expression, Fold-change from T0: 3.4 fold
  IL-12 mRNA expression in peripheral blood, Mean: 7.35
  IL-12 mRNA expression, Fold-change from T0: 4.7 fold
  MxA mRNA expression in peripheral blood, Mean: 5.93
  MxA mRNA expression, Fold-change from T0: 3.8 fold
  TNF-a mRNA expression in peripheral blood, Mean: 20.72
  TNF-a mRNA expression, Fold-change from T0: 3.0 fold
Oral 0.05 mg/kg, 12 hrs
  2′5′-OAS mRNA expression in peripheral blood, Mean: 54.92
  2′5′-OAS mRNA expression, Fold-change from T0: 15.6 fold
  IDO mRNA expression in peripheral blood, Mean: 10.64
  IDO mRNA expression, Fold-change from T0: 7.7 fold
  IFN-a mRNA expression in peripheral blood, Mean: 3.82
  IFN-a mRNA expression, Fold-change from T0: 1.3 fold
  IFN-γ mRNA expression in peripheral blood, Mean: 2.64
  IFN-γ mRNA expression, Fold-change from T0: 2.0 fold
  IL-2 mRNA expression in peripheral blood, Mean: 2.43
  IL-2 mRNA expression, Fold-change from T0: 2.1 fold
  IL-6 mRNA expression in peripheral blood, Mean: 6.22
  IL-6 mRNA expression, Fold-change from T0: 1.5 fold
  IL-10 mRNA expression in peripheral blood, Mean: 7.35
  IL-10 mRNA expression, Fold-change from T0: 3.0 fold
  IL-12 mRNA expression in peripheral blood, Mean: 21.12
  IL-12 mRNA expression, Fold-change from T0: 12.7 fold
  MxA mRNA expression in peripheral blood, Mean: 18.70
  MxA mRNA expression, Fold-change from T0: 12.5 fold
  TNF-a mRNA expression in peripheral blood, Mean: 35.05
  TNF-a mRNA expression, Fold-change from T0: 5.2 fold
Oral 0.05 mg/kg, 24 hrs
  2′5′-OAS mRNA expression in peripheral blood, Mean: 36.91
  2′5′-OAS mRNA expression, Fold-change from T0: 11.9 fold
  IDO mRNA expression in peripheral blood, Mean: 26.71
  IDO mRNA expression, Fold-change from T0: 25.6 fold
  IFN-a mRNA expression in peripheral blood, Mean: 2.63
  IFN-a mRNA expression, Fold-change from T0: 1.0 fold
  IFN-γ mRNA expression in peripheral blood, Mean: 1.82
  IFN-γ mRNA expression, Fold-change from T0: 1.2 fold
  IL-2 mRNA expression in peripheral blood, Mean: 3.64
  IL-2 mRNA expression, Fold-change from T0: 3.2 fold
  IL-6 mRNA expression in peripheral blood, Mean: 4.30
  IL-6 mRNA expression, Fold-change from T0: 1.1 fold
  IL-10 mRNA expression in peripheral blood, Mean: 6.08
  IL-10 mRNA expression, Fold-change from T0: 2.3 fold
  MxA mRNA expression in peripheral blood, Mean: 117.33
  MxA mRNA expression, Fold-change from T0: 69.3 fold
  TNF-a mRNA expression in peripheral blood, Mean: 20.53
  TNF-a mRNA expression, Fold-change from T0: 3.2 fold
Oral 0.5 mg/kg, 4 hrs
  2′5′-OAS mRNA expression in peripheral blood, Mean: 33.05
  2′5′-OAS mRNA expression, Fold-change from T0: 6.5 fold
  IDO mRNA expression in peripheral blood, Mean: 22.67
  IDO mRNA expression, Fold-change from T0: 9.1 fold
  IFN-a mRNA expression in peripheral blood, Mean: 19.14
  IFN-a mRNA expression, Fold-change from T0: 3.9 fold
  IFN-γ mRNA expression in peripheral blood, Mean: 2.80
  IFN-γ mRNA expression, Fold-change from T0: 2.6 fold
  IL-2 mRNA expression in peripheral blood, Mean: 4.32
  IL-2 mRNA expression, Fold-change from T0: 2.2 fold
  IL-6 mRNA expression in peripheral blood, Mean: 21.84
  IL-6 mRNA expression, Fold-change from T0: 4.6 fold
  IL-10 mRNA expression in peripheral blood, Mean: 4.01
  IL-10 mRNA expression, Fold-change from T0: 1.5 fold
  IL-12 mRNA expression in peripheral blood, Mean: 5.74
  IL-12 mRNA expression, Fold-change from T0: 3.8 fold
  MxA mRNA expression in peripheral blood, Mean: 5.96
  MxA mRNA expression, Fold-change from T0: 3.6 fold
  TNF-a mRNA expression in peripheral blood, Mean: 43.18
  TNF-a mRNA expression, Fold-change from T0: 6.2 fold
Oral 0.5 mg/kg, 8 hrs
  2′5′-OAS mRNA expression in peripheral blood, Mean: 41.13
  2′5′-OAS mRNA expression, Fold-change from T0: 8.3 fold
  IDO mRNA expression in peripheral blood, Mean: 30.62
  IDO mRNA expression, Fold-change from T0: 11.6 fold
  IFN-a mRNA expression in peripheral blood, Mean: 48.85
  IFN-a mRNA expression, Fold-change from T0: 10.4 fold
  IFN-γ mRNA expression in peripheral blood, Mean: 7.81
  IFN-γ mRNA expression, Fold-change from T0: 6.7 fold
  IL-2 mRNA expression in peripheral blood, Mean: 3.12
  IL-2 mRNA expression, Fold-change from T0: 2.0 fold
  IL-6 mRNA expression in peripheral blood, Mean: 18.57
  IL-6 mRNA expression, Fold-change from T0: 4.6 fold
  IL-10 mRNA expression in peripheral blood, Mean: 17.31
  IL-10 mRNA expression, Fold-change from T0: 6.6 fold
  IL-12 mRNA expression in peripheral blood, Mean: 6.86
  IL-12 mRNA expression, Fold-change from T0: 4.2 fold
  MxA mRNA expression in peripheral blood, Mean: 12.86
  MxA mRNA expression, Fold-change from T0: 7.9 fold
  TNF-a mRNA expression in peripheral blood, Mean: 31.19
  TNF-a mRNA expression, Fold-change from T0: 4.5 fold
Oral 0.5 mg/kg, 12 hrs
  2′5′-OAS mRNA expression in peripheral blood, Mean: 884.87
  2′5′-OAS mRNA expression, Fold-change from T0: 185.6 fold
  IDO mRNA expression in peripheral blood, Mean: 89.01
  IDO mRNA expression, Fold-change from T0: 37.0 fold
  IFN-a mRNA expression in peripheral blood, Mean: 7.12
  IFN-a mRNA expression, Fold-change from T0: 1.5 fold
  IFN-γ mRNA expression in peripheral blood, Mean: 4.36
  IFN-γ mRNA expression, Fold-change from T0: 3.8 fold
  IL-6 mRNA expression in peripheral blood, Mean: 6.25
  IL-6 mRNA expression, Fold-change from T0: 1.4 fold
  IL-10 mRNA expression in peripheral blood, Mean: 14.92
  IL-10 mRNA expression, Fold-change from T0: 5.6 fold
  IL-12 mRNA expression in peripheral blood, Mean: 49.93
  IL-12 mRNA expression, Fold-change from T0: 30.1 fold
  MxA mRNA expression in peripheral blood, Mean: 71.77
  MxA mRNA expression, Fold-change from T0: 45.3 fold
  TNF-a mRNA expression in peripheral blood, Mean: 62.30
  TNF-a mRNA expression, Fold-change from T0: 9.0 fold
Oral 0.5 mg/kg, 24 hrs
  2′5′-OAS mRNA expression in peripheral blood, Mean: 64.27
  2′5′-OAS mRNA expression, Fold-change from T0: 14.4 fold
  IDO mRNA expression in peripheral blood, Mean: 1217.20
  IDO mRNA expression, Fold-change from T0: 454.2 fold
  IFN-a mRNA expression in peripheral blood, Mean: 4.15
  IFN-a mRNA expression, Fold-change from T0: 0.9 fold
  IFN-γ mRNA expression in peripheral blood, Mean: 2.16
  IFN-γ mRNA expression, Fold-change from T0: 1.9 fold
  IL-2 mRNA expression in peripheral blood, Mean: 13.38
  IL-2 mRNA expression, Fold-change from T0: 5.9 fold
  IL-6 mRNA expression in peripheral blood, Mean: 4.75
  IL-6 mRNA expression, Fold-change from T0: 1.2 fold
  IL-10 mRNA expression in peripheral blood, Mean: 8.74
  IL-10 mRNA expression, Fold-change from T0: 3.3 fold
  IL-12 mRNA expression in peripheral blood, Mean: 11.55
  IL-12 mRNA expression, Fold-change from T0: 7.0 fold
  MxA mRNA expression in peripheral blood, Mean: 758.52
  MxA mRNA expression, Fold-change from T0: 518.8 fold
  TNF-a mRNA expression in peripheral blood, Mean: 30.71
  TNF-a mRNA expression, Fold-change from T0: 4.5 fold
Oral 0.05 and 0.5 mg/kg
  mRNA expression of IFN-α, IFN-γ, TNF-alpha, IL-2, IL-6, IL-10, IL-12, 2′5′-OAS, IDO and MxA: induced dose-dependent increases in the mRNA expression
Oral dosing
  time of maximal mRNA expression of IFN-α, IFN-γ, IL-6, and IL-10: 8 hours post-dose
  time of maximal mRNA expression of IL-2, IDO, and MxA: 24 hours post-dose
  time of maximal mRNA expression of TNF-α, IL-12, and 2′5′-OAS: 12 hours post-dose
